Experimental data reported in publication PMC12860872, “Preclinical evaluation of DOTAGA.Glu.(FAPI)2 and DO3A.Glu.(FAPI)2 as theranostics with human dosimetry extrapolation to lutetium-177 and terbium-161 analogs” (European Journal of Nuclear Medicine and Molecular Imaging, 2025).
Where “and” joins values, the source holds several entries; their conditions need not be identical. Equal values may be shown once.

How the values were obtained:
PC3-mice = experiment: Biodistribution in PC3-mice incl. blocking; format: in vivo, mouse; settings: PC3-mice
Method: Male athymic Balb/C nude mice (6 weeks/20–25 g) were implanted with PC3 cells (3.5 × 10^6/100 µL PBS) into their right shoulder to develop tumors. The animals were used for biodistribution and PET/SPECT/CT imaging studies, once tumors reached 250–300 mm^3.
All mice were euthanized with intraperitoneal injection of pentobarbital (150 mg/kg), and selected organs were dissected, weighed, and measured for radioactivity using a gamma-counter. Results are expressed as % injected activity per gram tissue (% I.A./g), presented as mean ± SD (n = 3–4).

FAP = molecular target: T1, FAP (Homo sapiens, UniProt Q12884); experiment: Saturation binding on FAP+ CAFs; settings: listed as 68/natGa-DO3A.Glu.(FAPI)2
T1 construct: the CAF cells overexpressing FAP were seeded at a density of 0.8-1 million cells per well; host or cells: hTERT PF179T prostate cancer-associated fibroblasts
T1 sequence (Q12884 1-760): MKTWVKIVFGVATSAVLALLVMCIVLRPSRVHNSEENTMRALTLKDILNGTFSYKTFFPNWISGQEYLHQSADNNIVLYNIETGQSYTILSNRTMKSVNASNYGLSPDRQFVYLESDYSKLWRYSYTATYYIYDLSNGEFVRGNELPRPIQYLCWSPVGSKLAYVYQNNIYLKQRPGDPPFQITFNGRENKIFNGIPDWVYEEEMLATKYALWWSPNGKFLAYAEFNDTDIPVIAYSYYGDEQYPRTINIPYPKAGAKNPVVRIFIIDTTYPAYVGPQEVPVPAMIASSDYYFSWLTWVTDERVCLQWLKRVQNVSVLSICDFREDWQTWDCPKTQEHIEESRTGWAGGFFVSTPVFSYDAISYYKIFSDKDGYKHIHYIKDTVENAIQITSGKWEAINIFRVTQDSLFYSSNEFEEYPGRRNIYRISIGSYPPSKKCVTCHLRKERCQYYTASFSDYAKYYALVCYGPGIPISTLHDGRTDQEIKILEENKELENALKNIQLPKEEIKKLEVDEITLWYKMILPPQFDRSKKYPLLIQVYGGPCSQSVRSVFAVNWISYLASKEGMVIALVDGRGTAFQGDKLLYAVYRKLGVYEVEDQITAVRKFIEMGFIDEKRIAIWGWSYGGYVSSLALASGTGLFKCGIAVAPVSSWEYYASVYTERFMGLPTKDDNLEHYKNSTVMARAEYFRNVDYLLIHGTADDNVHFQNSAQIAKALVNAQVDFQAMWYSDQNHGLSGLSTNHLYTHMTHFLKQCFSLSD
Method: For receptor saturation studies, FAP^+ CAFs were incubated with 0.1 to 10 nM of the radioligands. For internalization studies, approximately 2.5 pmol of the radioligands were added to CAFs followed by incubation for 15, 30, 60, 90, 120, 180 and 240 min for the ^68Ga-labeled or 30, 60, 120, 240 and 360 min for the ^177Lu-labeled radioligands at 37 °C, 5% CO2. For the externalization studies, approximately 2.5 pmol of the ^177Lu-labeled radioligands were added to CAFs followed by incubation for 2 h at 37 °C, 5% CO2. The amount of externalized activity was measured at 0, 10, 20, 30, 60, 120, 240, and 1440 min (Supplemental Data).
For receptor saturation analysis, the CAF cells overexpressing FAP were seeded at a density of 0.8-1 million cells per well in 6-well plates, pre-coated with BME (Cultrex Reduced Growth Factor Basement Membrane Extract, RGF BME, R&D System, Minneapolis, USA) to enhance cell attachment. The cells were incubated overnight with medium (EMEM supplemented and containing 10% FBS, 100 U/mL penicillin and 100 μg/mL streptomycin). The next day, the medium was removed and the cells were incubated for 30 minutes at 37 °C, with 0.8 mL of fresh medium. Afterwards, the plates were placed on ice for 30 minutes followed by incubation with increasing concentrations of ^68/natGa- and ^177/natLu-labelled DOTAGA.Glu.(FAPI)2 and DO3A.Glu.( FAPI)2 (0.1-10 nM final concentration in the wells). After the addition of the radioligands, the cells were incubated for 120 minutes at 4 °C. Non-specific binding was determined in the presence of UAMC1110 at a final concentration of 1 μM. After the completion of the incubation, the cells were washed twice with ice-cold PBS, followed by solubilization with 1 M NaOH. The cell-associated radioactivity was measured using a gamma-counter. Specific binding was plotted against the total molar concentration of the added radiotracer. The Kd values and the concentration of the radioligand required to saturate the receptors (Bmax) were determined by nonlinear regression using GraphPad (Prism 8 Graph Pad Software, San Diego, CA). For all the cell studies the values are normalized for 1x10^6 cells per well and all data are from two independent experiments with triplicates in each experiment.

[1] = Blocking 1h (20 nmol unlabeled precursor)

## N#C[C@@H]1CC(F)(F)CN1C(=O)CNC(=O)c1ccnc2ccc(OCCCCNC(=O)CC[C@H](NC(=O)CN3CCN(CC(=O)[O-])CCN(CC(=O)[O-])CCN(CC(=O)[O-])CC3)C(=O)NCCCCOc3ccc4nccc(C(=O)NCC(=O)N5CC(F)(F)C[C@H]5C#N)c4c3)cc12.[68Ga+3] [[^68Ga]Ga-DO3A.Glu.(FAPI)2]
PC3-mice; 1 h p.i.
  Uptake in Adrenal: 3.6±1.1 %I.A./g
  Uptake in Blood: 2±0.1 %I.A./g
  Uptake in Bone: 5±3.1 %I.A./g
  Uptake in Gallbladder: 2.3±1.8 %I.A./g
  Uptake in Heart: 1±0.1 %I.A./g
  Uptake in Intestine: 0.9±0.2 %I.A./g
  Uptake in Kidney: 6.7±1.7 %I.A./g
  Uptake in Liver: 4.2±1.2 %I.A./g
  Uptake in Lung: 3.8±1 %I.A./g
  Uptake in Muscle: 2±0.03 %I.A./g
  Uptake in Pancreas: 1.8±0.1 %I.A./g
  Uptake in Salivary glands: 6.4±0.5 %I.A./g
  Uptake in Spleen: 1.3±0.3 %I.A./g
  Uptake in Stomach: 0.9±0.1 %I.A./g
  Uptake in Tumor: 19±2.4 %I.A./g
PC3-mice; 2 h p.i.
  Uptake in Adrenal: 2.5±0.8 %I.A./g
  Uptake in Blood: 2.2±0.1 %I.A./g
  Uptake in Bone: 6.3±1 %I.A./g
  Uptake in Gallbladder: 3.5±1.8 %I.A./g
  Uptake in Heart: 0.8±0.03 %I.A./g
  Uptake in Intestine: 1±0.2 %I.A./g
  Uptake in Kidney: 4.4±0.8 %I.A./g
  Uptake in Liver: 3.3±0.9 %I.A./g
  Uptake in Lung: 2.5±0.6 %I.A./g
  Uptake in Muscle: 1.3±0.3 %I.A./g
  Uptake in Pancreas: 1.7±0.1 %I.A./g
  Uptake in Salivary glands: 5.2±0.1 %I.A./g
  Uptake in Spleen: 1.6±0.4 %I.A./g
  Uptake in Stomach: 0.9±0.1 %I.A./g
  Uptake in Tumor: 19.6 ± 0.7 %I.A./g
PC3-mice; 3 h p.i.
  Uptake in Adrenal: 2.4±0.8 %I.A./g
  Uptake in Blood: 2.2±0.1 %I.A./g
  Uptake in Bone: 5.8±1 %I.A./g
  Uptake in Gallbladder: 1.7±0.9 %I.A./g
  Uptake in Heart: 0.7±0.1 %I.A./g
  Uptake in Intestine: 0.9±0.2 %I.A./g
  Uptake in Kidney: 3.4±0.4 %I.A./g
  Uptake in Liver: 2.8±0.3 %I.A./g
  Uptake in Lung: 1.7±0.3 %I.A./g
  Uptake in Muscle: 1.1±0.1 %I.A./g
  Uptake in Pancreas: 1.4±0.1 %I.A./g
  Uptake in Salivary glands: 5±1.4 %I.A./g
  Uptake in Spleen: 1.4±0.3 %I.A./g
  Uptake in Stomach: 0.7±0.02 %I.A./g
  Uptake in Tumor: 17.5 ± 1.1 %I.A./g
PC3-mice; [1]
  Uptake in Adrenal: 0.1±0.6 %I.A./g
  Uptake in Blood: 2.3±0.5 %I.A./g
  Uptake in Bone: 0.3±0.1 %I.A./g
  Uptake in Gallbladder: 3.5±0.3 %I.A./g
  Uptake in Heart: 0.7±0.2 %I.A./g
  Uptake in Intestine: 0.8±0.3 %I.A./g
  Uptake in Kidney: 6.2±1.2 %I.A./g
  Uptake in Liver: 3.2±0.7 %I.A./g
  Uptake in Lung: 2.1±0.4 %I.A./g
  Uptake in Muscle: 0.3±0.01 %I.A./g
  Uptake in Pancreas: 0.4±0.1 %I.A./g
  Uptake in Salivary glands: 0.7±0.1 %I.A./g
  Uptake in Spleen: 1±0.1 %I.A./g
  Uptake in Stomach: 0.8±0.3 %I.A./g
  Uptake in Tumor: 1.3±0.2 %I.A./g
PC3-mice; over 3 h
  Blood pool retention: around 2 %I.A./g
PC3-mice; sustained up to 3 h p.i.
  tumor uptake: 18–19 %I.A./g
FAP; 0.1 to 10 nM radioligand
  Kd: 0.9 nM and 0.89 nM
FAP
  Bmax: 0.5 ± 0.05 nM and 0.54 ± 0.05 nM
